Series [1] has as its system Aβ-GFP SH-SY5Y cells. Description: ROS assay (CellROX Orange) in Aβ-GFP cells. The conditions noted are these: tested 1.2–5 μM. The series is classed as cell-based, Human. The procedure:
On day 1, Aβ-GFP or ∆K280 tauRD-DsRed SH-SY5Y cells were seeded into 96-well plates (2.5 × 10^4/well) and treated with retinoic acid (10 μM; Sigma-Aldrich) to prompt neuronal differentiation. […] On day 8, cells were stained with Hoechst 33342 (0.1 μg/ml; Sigma-Aldrich) for 30 min, and cell images were automatically captured at excitation/emission wavelengths of 482/[…] (GFP fluorescence) or 543/593 nm (DsRed fluorescence) using a high content analysis (HCA) system (Micro Confocal High-Content Imaging System). Image Acquisition and Analysis Software (MetaXpress) (Molecular Devices, Sunnyvale, CA, USA) was used to analyse the images. CellROX Orange (5 μM; Molecular Probes, Eugene, OR, USA) (for Aβ-GFP cells) or dichloro-dihydro-fluorescein diacetate (DCFH-DA, 10 μM; Invitrogen) (for ∆K280 tauRD-DsRed cells) was added to the cells and incubated at 37°C for 30 min. The HCA system was used to measure intracellular ROS at 531/593 nm (CellROX Orange fluorescence) or 482/536 nm (DCFH-DA fluorescence) of excitation/emission wavelengths.

In series [2] the target is T1, Aβ42 peptide (Homo sapiens, UniProt P05067).
T1 construct: containing Aβ42 peptide (5 μM); purchased AnaSpec; host or cells: synthetic
T1 sequence (P05067 672-713 limits assumed): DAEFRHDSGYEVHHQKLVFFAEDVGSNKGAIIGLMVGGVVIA
Description: Thioflavin T assay of Aβ aggregation. The series is classed as biochemical. Particulars: Aβ42 5 μM, compound 5–20 μM, 37°C 48 h; read-out: Aβ aggregation inhibition EC50 (Thioflavin T). The procedure:
In brief, the tested compound (5–20 μM) was added to a buffer solution (150 mM NaCl, 20 mM Tris-HCl (pH 8.0)) containing Aβ42 peptide (5 μM) and incubated at 37°C for 48 h. Thioflavin T (10 μM) (Sigma-Aldrich) then was added, and the mixture was incubated for 5 min at room temperature. Subsequently, the fluorescence intensity was quantified at 420/485 nm of excitation/emission wavelengths using a FLx800 microplate reader (Bio-Tek, Winooski, VT, USA). EC50 was computed as described.

Series [3] deals with Aβ-GFP SH-SY5Y cells. Briefly: High content analysis of neurite outgrowth in Aβ-GFP cells. The series is classed as cell-based, Human. The conditions noted are these: 5 μM. The method, then: On day 1, Aβ-GFP or ∆K280 tauRD-DsRed SH-SY5Y cells were plated into 24-well plates (6 × 10^4/well) followed by addition of retinoic acid. On day 2, cells were treated with coumarin-chalcone derivatives (5 or 10 μM) and with doxycycline (5 or 2 μg/ml) to induce the expression of Aβ-GFP or ∆K280 tauRD-DsRed. On day 8, 4% paraformaldehyde, 0.1% Triton X-100, and 3% BSA were used to fix, permeabilize, and block cells, respectively. Subsequently, the cells were stained with TUBB3 (neuronal class III β-tubulin) primary antibody (1 : 1000; Covance, Princeton, NJ, USA) at 4°C overnight. Goat anti-rabbit Alexa Fluor 555 secondary antibody (1 : 1000; Thermo Fisher Scientific) was then added, followed by a 3 h incubation at room temperature. Following staining nuclei with 4′,-6-diamidino-2-phenylindole (DAPI) (0.1 μg/ml; Sigma-Aldrich), the neurons were imaged by using the HCA system and analysed by using the Neurite Outgrowth Application Module (MetaXpress; Molecular Devices).
To monitor the cAMP-mediated signal transduction pathway, CRE-GFP 293 cells in 6-well plates (1 × 10^6/well) were pretreated with kinase inhibitor H-89 (LC Laboratories, Woburn, MA, USA), KN-62 (Cayman Chemical, Ann Arbor, MI, USA), U0126 (LC Laboratories), or wortmannin (LC Laboratories) (10 μM) for 4 h before forskolin or LM-021 (10 μM) addition for 5 h. GFP fluorescence/protein and total/phosphorylated PKA, CaMKII, ERK, PI3K, and CREB levels were examined. In addition, Aβ-GFP or ∆K280 tauRD-DsRed SH-SY5Y cells were treated with retinoic acid (10 μM) on day 1, followed by the addition of LM-021 (5 or 10 μM) and doxycycline (5 or 2 μg/ml) on day 2, as described. Kinase inhibitors (10 μM) were added on day 6. On day 8, the cells were collected for protein expression analysis of BDNF, BCL2 (BCL2 apoptosis regulator), and BAX (BCL2 associated X, apoptosis regulator), and total/phosphorylated PKA, CaMKII, ERK, PI3K, and CREB. Also, cells were stained with DAPI and assessed for neurite outgrowth as described above.

Series [4] in a line: physchem. The series is classed as physicochemical. Particulars: aqueous buffer. The method, then:
The coumarin-chalcone derivatives (E)-4-hydroxy-3-(3-(p-tolyl)acryloyl)-2H-chromen-2-one (LM-016), (E)-3-(3-(4-(dimethylamino)phenyl)acryloyl)-4-hydroxy-2H-chromen-2-one (LM-021), and (E)-3-(3-(furan-2-yl)acryloyl)-4-hydroxy-2H-chromen-2-one (LM-022) were synthesized in our laboratory as previously described and examined by using NMR spectroscopy. The LM-016, LM-021, and LM-022 stayed soluble in cell culture medium at concentrations up to 100 μM.

Entries after “also recorded” stand apart in the source; their conditions may differ. Where only a bound is given, the exact number is not on record here.

Broadly, the EC50 is the concentration that produces a half-maximal response. One may read the solubility as how much of the substance goes into solution per volume. For `CN(C)c1ccc(/C=C/C(=O)c2c(O)c3ccccc3oc2=O)cc1` [LM-021, (E)-3-(3-(4-(dimethylamino)phenyl)acryloyl)-4-hydroxy-2H-chromen-2-one], in series [1], the “Concentration effectively decreasing ROS levels caused by Aβ overexpression” value fell in the range of 1.2 to 5 µM. The EC50 in series [2] turned out to be 14 µM. Also, the “Neurite length, processes, and branches” value in series [3] is “successfully ameliorated; also recorded: salvaged”. The solubility in series [4] was ≥ 100 µM.
